Reference: patent US20180186742A1, “PICOLINAMIDES AS FUNGICIDES” (Dow AgroSciences LLC, priority 2017, published 2018)
Like-named read-outs stand apart in the source and are kept apart here.

Columns and labels:
Type in all cases: in vivo
[1] = system: Zymoseptoria tritici; experiment: Leaf blotch of wheat (SEPTTR), disease control on wheat seedlings; settings: low volume application at 121.5 g/H
Method in brief: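 Yuma wheat seedlings with the first leaf fully emerged were sprayed to run-off with compound in acetone plus nine volumes of water containing 110 ppm Triton X-100; track-spray tests used EC formulations with 0.1% Trycol 5941. Z. tritici inoculation came before or after treatment, followed by 100% RH dew periods and a 20 °C greenhouse. Percent control was calculated from severity versus untreated plants.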

[2] = system: Phakopsora pachyrhizi; experiment: Asian soybean rust (PHAKPA), disease control on soybean seedlings; settings: High volume application at 25 ppm
Method in brief: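 Two-week-old Williams 82 soybean seedlings were sprayed to run-off with compound in acetone/water (1:9) containing 0.011% Tween 20. Inoculation was 3 days before (curative) or 1 day after (protectant) treatment, followed by 24 h dark dew at 22 °C, 100% RH, then 23 °C; disease severity scored on sprayed leaves.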

[3] = system: Puccinia triticina; experiment: Wheat brown rust (PUCCRT), disease control on wheat seedlings; settings: low volume application at 121.5 g/H
Method in brief: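 Compounds in acetone, diluted with nine volumes of water containing 110 ppm Triton X-100, sprayed to run-off on first-leaf Yuma wheat seedlings; track-spray tests used EC formulations with 0.1% Trycol 5941. Puccinia triticina spores applied before or after treatment. Overnight dark dew room at 22° C, 100% humidity, then greenhouse at 24° C.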

[4] = 24 h, 1 Day Protectant, wheat leaf blotch, read-out: SEPTTR 1DP disease control, LV activity
[5] = 72 h, 3 Day Curative, wheat leaf blotch, read-out: SEPTTR 3DC disease control, LV activity
[6] = 24 h, 1 Day Protectant, read-out: PHAKPA 1DP disease control rating
[7] = 72 h, 3 Day Curative, read-out: PHAKPA 3DC disease control rating
[8] = 24 h, 1 Day Protectant, wheat brown rust, read-out: PUCCRT 1DP disease control, LV activity
[9] = 72 h, 3 Day Curative, wheat brown rust, read-out: PUCCRT 3DC disease control, LV activity
[10] = 24 h, 1 Day Protectant, read-out: SEPTTR disease control, 1DP, LV activity
[11] = 72 h, 3 Day Curative, read-out: SEPTTR disease control, 3DC, LV activity
[12] = 24 h, 1 Day Protectant, read-out: PUCCRT disease control, 1DP, LV activity
[13] = 72 h, 3 Day Curative, read-out: PUCCRT disease control, 3DC, LV activity

| Structure (SMILES) | pest or weed control at 121.5 g/ha [1, 4] | pest or weed control at 121.5 g/ha [1, 5] | pest or weed control at 25 ppm [2, 6] | pest or weed control at 25 ppm [2, 7] | pest or weed control at 121.5 g/ha [3, 8] | pest or weed control at 121.5 g/ha [3, 9] | pest or weed control at 121.5 g/ha [1, 10] | pest or weed control at 121.5 g/ha [1, 11] | pest or weed control at 121.5 g/ha [3, 12] | pest or weed control at 121.5 g/ha [3, 13] |
| --- | --- | --- | --- | --- | --- | --- | --- | --- | --- | --- |
| COc1ccnc(C(=O)N[C@@H](C)C(=O)O[C@@H](C)[C@H](c2ccc(OC(C)C)cc2)C(C)C)c1OCOC(C)=O [Compound 379] | < 80% | < 80% | < 80% | < 80% | > 80% | < 80% | – | – | – | – |
| COc1cc(F)ccc1[C@H](C1CCCC1)[C@H](C)OC(=O)[C@H](C)NC(=O)c1nccc(OC)c1OC(C)=O [Compound 228] | – | – | > 80% | < 80% | – | – | > 80% | < 80% | > 80% | < 80% |
| COc1cc(F)ccc1[C@@H](C1CCCCC1)[C@H](C)OC(=O)[C@H](C)NC(=O)c1nccc(OC)c1OCOC(C)=O [Compound 233] | – | – | < 80% | < 80% | – | – | > 80% | > 80% | < 80% | < 80% |
| COc1ccnc(C(=O)N[C@@H](C)C(=O)O[C@@H](C)[C@H](c2ccc(F)cc2C)C2CCCCC2)c1OC(C)=O [Compound 185] | – | – | > 80% | < 80% | – | – | > 80% | > 80% | > 80% | < 80% |
| CCC(CC)[C@H](c1ccc(F)cc1OC)[C@H](C)OC(=O)[C@H](C)NC(=O)c1nccc(OC)c1OC(C)=O [Compound 222] | – | – | > 80% | < 80% | – | – | > 80% | > 80% | > 80% | < 80% |
| COCCC(=O)Oc1c(OC)ccnc1C(=O)N[C@@H](CC(C)C)C(=O)O[C@@H](C)[C@H](c1ccc(F)cc1C)C(C)C [Compound 353] | – | – | > 80% | < 80% | – | – | < 80% | < 80% | < 80% | < 80% |
| COc1ccnc(C(=O)N[C@@H](C)C(=O)O[C@@H](C)[C@@H](c2ccc(F)cc2C)C2CCCCC2)c1OC(C)=O [Compound 181] | – | – | < 0% | < 80% | – | – | < 80% | > 80% | < 80% | < 80% |
| COc1ccnc(C(=O)N[C@@H](C)C(=O)O[C@@H](C)[C@H](c2ccc(C)cc2F)C(C)C)c1OC(C)=O [Compound 366] | < 80% | < 80% | > 80% | < 80% | > 80% | > 80% | – | – | – | – |
| COc1cc(F)ccc1[C@@H](C1CCCCC1)[C@H](C)OC(=O)[C@H](C)NC(=O)c1nccc(OC)c1OC(C)=O [Compound 223] | – | – | < 80% | < 0% | – | – | > 80% | > 80% | < 80% | < 80% |
| COc1ccnc(C(=O)N[C@@H](C)C(=O)O[C@H](C)[C@H](c2ccc(F)cc2C)C2CCCC2)c1OC(C)=O [Compound 190] | – | – | < 80% | < 80% | – | – | < 0% | < 80% | < 0% | < 0% |
| CC[C@H](C)[C@H](NC(=O)c1nccc(OC)c1OC(C)=O)C(=O)O[C@@H](C)[C@H](c1ccc(F)cc1C)C(C)C [Compound 348] | – | – | > 80% | < 80% | – | – | < 80% | < 80% | > 80% | < 80% |
| CCC(C)[C@@H](c1ccc(F)cc1OC)[C@H](C)OC(=O)[C@H](C)NC(=O)c1nccc(OC)c1OC(C)=O (stereo partly drawn) [Compound 230] | – | – | > 80% | < 80% | – | – | > 80% | < 80% | > 80% | > 80% |
| COc1cc(F)ccc1[C@H](C(C)C)[C@H](C)OC(=O)[C@H](C)NC(=O)c1nccc(OC)c1OCOC(C)=O [Compound 237] | – | – | > 80% | > 80% | – | – | < 80% | < 80% | > 80% | > 80% |
| COCCC(=O)Oc1c(OC)ccnc1C(=O)N[C@@H](C)C(=O)O[C@@H](C)[C@H](c1ccc(F)cc1OC)C1CCC1 [Compound 238] | – | – | < 80% | < 80% | – | – | < 80% | < 80% | < 80% | < 80% |
| CC[C@H](C)[C@H](NC(=O)c1nccc(OC)c1OC(=O)CCOC)C(=O)O[C@@H](C)[C@H](c1ccc(F)cc1C)C(C)C [Compound 352] | – | – | > 80% | < 80% | – | – | < 80% | < 80% | > 80% | < 80% |
| COc1cc(F)ccc1[C@@H](C1CCCC1)[C@H](C)OC(=O)[C@H](C)NC(=O)c1nccc(OC)c1OCOC(C)=O [Compound 234] | – | – | > 80% | < 0% | – | – | < 80% | < 80% | > 80% | < 80% |
| COc1cc(F)ccc1[C@H](C1CCCCC1)[C@H](C)OC(=O)[C@H](C)NC(=O)c1nccc(OC)c1OC(C)=O [Compound 227] | – | – | > 80% | < 80% | – | – | > 80% | > 80% | > 80% | > 80% |
